Source: patent publication US20260042816A1, “TYROSINE KINASE INHIBITOR AND ACTIVIN TYPE 2 RECEPTOR ANTAGONIST COMBINATION THERAPY FOR TREATING PULMONARY ARTERIAL HYPERTENSION (PAH)” (GB002, INC., priority 2022, published 2026)

Legend:
PAH patients = conditions: patients treated with standard-of-care therapies; cited from earlier work
[1] = test system: SuHx-mediated (SU5416 plus hypoxia) pulmonary hypertension; assay: SuHx (SU5416 plus hypoxia) rat model of PAH; type: in vivo, male Sprague Dawley rats; conditions: for decrease in Fulton's Index (RV hypertrophy measurement) / decrease in PVR Index / decrease in RVSP / decrease in mPAP: normalized to vehicle (1) and normal controls (0), day 49, after 4 weeks of treatment, Seralutinib 15 mg/kg inhalation BID and/or Sotatercept (as RAP-011) 5 mg/kg SC 2x/week; for lung histology (hematoxylin and eosin), pulmonary vessels: representative images, FIG. 2
Description: PAH was induced in animal by a administering a single injection SU5416 (20 mg/kg) on day 0, followed by exposure of animals to hypoxia (10% oxygen) for 21 days. SuHx rats were divided in four groups and treated with i) Control: Seralutinib vehicle inhalation+Sotatercept vehicle injection (grey bar) or ii) Seralutinib 15 mg/kg, by inhalation, twice daily+Sotatercept vehicle, subcutaneous injection, twice a week (bar with horizontal pattern) or iii) Sotatercept 5 mg/kg subcutaneous injection, twice a week+Seralutinib vehicle, by inhalation, twice daily (bar with vertical line pattern) or iv) Seralutinib 15 mg/kg, by inhalation, twice daily+Sotatercept 5 mg/kg subcutaneous injection, twice a week (white bar); normoxia animals were used a healthy controls. Bar graph showing individual normalized data point for (A) Right ventricular systolic pressure (RVSP) (FIG. 1A), (B) mean pulmonary artery pressure (mPAP) (FIG. 1B), (C) right ventricular hypertrophy measured by fulton's index (FIG. 1C), and PVR index (FIG. 1D).
SuHx-mediated (SU5416 plus hypoxia) pulmonary hypertension was induced in male Sprague Dawley rats (see “Inhibition of the VEGF receptor 2 combined with chronic hypoxia causes cell death-dependent pulmonary endothelial cell proliferation and severe pulmonary hypertension”, Taraseviciene-Stewart et. al., FASEB J, 2001, 15, 427-438 and “TORREY, a Phase 2 study to evaluate the efficacy and safety of inhaled seralutinib for the treatment of pulmonary arterial hypertension”, Frantz R P, et. al., Pulmonary Circulation 2021; 11(4), 1-7). Semaxanib (SU5416) was administered to rats weighing 200-250 g as a single subcutaneous injection (20 mg/kg). Rats were housed for 3 weeks in 10% oxygen and subsequently re-exposed to normoxia during 4-week treatment period.
Rats underwent treatment for four weeks as described above, with treatment starting on day 22, after disease induction. After 4 weeks of treatment, the following parameters were evaluated: right ventricular systolic pressure (RVSP); Fulton index (weight ratio of right ventricle to the left ventricle and septum); and mean pulmonary arterial pressure (mPAP).
Animals from (Group 2-5) received a single subcutaneous injection of SU5416 (20 mg/kg) on Day 0 and exposed to hypoxia (10% O2) for 21 days followed by 4 weeks of normoxia. Group 1 animals (healthy group) remained in cages exposed to ambient oxygen (normoxic) levels for 49 days. Food and water were given ad libitum.
Treatment with inhaled seralutinib or vehicle, RAP-011 or mIgG2A was as described in Table 2.
Briefly, treatment with the aerosolized Seralutinib or vehicle was administrated for 45 minutes BID for 4 weeks starting day 22 (as outlined in Table 1) at an estimated dose to 15 mg/kg/dose using a Vilnius Aerosol Generator connected to an inhalation tower. The powder concentration was continuously monitored by portable aerosol monitor. Mercer-style cascade impactor was used to perform aerodynamic particle size distribution measurements. RAP-011 or mIgG was administered at 5 mg/kg dose via SC injection twice a week for 4 weeks starting day 22 as described in Table 2.
An echocardiogram monitoring of the progression of the disease was carried out on Day 21 (before treatment) and on surgery day (Day 49) for all groups. The results of the echocardiogram, from Day 21, was used to randomize the animals to ensure that only animals with severe enough disease are selected and that there is a similar disease stage across all groups.
On day 49, after 4 weeks of treatment, end of study procedures was performed: mean pulmonary arterial pressure (mPAP) and right ventricle systolic pressure (RVSP) were measured via an intra-ventricular fluid-filled catheter from AD instruments. Mean pulmonary arterial blood pressure values by using the formula mPAP=Diastolic Pressure+(Systolic Pressure−Diastolic Pressure)/3.

[2] = test system: severe PAH in two animal models; conditions: cited from earlier work

Molecule	clinical effect in PAH patients (PAH patients)	decrease in Fulton's Index (RV hypertrophy measurement) [1] [%]	decrease in PVR Index [1] [%]	decrease in RVSP [1] [%]	decrease in mPAP [1] [%]	lung histology (hematoxylin and eosin), pulmonary vessels [1]	efficacy compared to imatinib ([2]; preclinical study)	efficacy of inhaled seralutinib in animal models of severe PAH ([2]; two animal models, improved hemodynamics, reduced NT-proBNP, reverse remodeling)
Sotatercept: soluble fusion protein composed of the extracellular domain of the activin receptor type IIA (ActR IIA) linked to the Fc portion of human IgG1 [reference compound]	beneficial effects	15	25	31	28	non-occluded pulmonary vessels similar to the healthy group	–	–
COc1ccc(-c2cncc(N[C@@H](C)c3cccc(NC(=O)c4cncc(C)c4)c3)n2)cc1OC [Seralutinib, N-{3-[(1S)-1-{[6-(3,4-dimethoxyphenyl)pyrazin-2-yl]amino}ethyl]phenyl}-5-methylpyridine-3-carboxamide]	–	9	26	13	23	non-occluded pulmonary vessels similar to the healthy group	greater efficacy compared to imatinib	effective treatment of severe PAH
